Reference: patent US20210380930A1, “METHODS, APPARATUS AND KITS FOR BACTERIAL CELL LYSIS” (TECHNISCHE UNIVERSITÄT WIEN, priority 2018, published 2021)
Read-outs that look alike come from different tables or passages of the source.

System: Enterococcus faecalis type strain NCTC 775
Assay: Cell lysis experiments with ILs, released DNA quantified by ENT-qPCR
Assay type: cell-based

SMILES | 23S rRNA gene copies in 2.5 μl of the DNA extracts | cell lysis efficiency with varying IL concentrations (IL from 90% (w/v) to 10% (w/v), same extraction procedure) | cell lysis efficiency with varying IL concentrations
CC(=O)[O-].CCn1cc[n+](C)c1 [[C2mim]OAc, 1-Ethyl-3-methylimidazollum acetate] | ~6.48±0.02 | almost steadily decreased with its respective concentration | –
CCCCCC(=O)[O-].C[N+](C)(C)CCO [[Cho]Hex, Choline hexanoate] | ~6.49±0.11 | – | slightly improved towards a concentration of 50% (w/v), only decreasing with lower concentrations of 30% (w/v) and 10% (w/v)
